Results as given in ChEMBL document CHEMBL1201862, “PubChem BioAssay data set” (2004).
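Assay format: 96-well plates, 48-hour exposure. GI50 = concentration required for 50% inhibition of growth.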 The source made the active and inactive calls. No stated cut-off is given here; in the data, active = GI50 up to about 1.1 µM and inactive = higher.

Experiments:
Assay in all cases: DTP human tumour cell line panel, 48 h
A549 = test system: A549
CAKI-1 = test system: CAKI-1
CCRF-CEM = test system: CCRF-CEM
HOP-92 = test system: HOP-92
Hs-578T = test system: Hs-578T
IGROV-1 = test system: IGROV-1
KM12 = test system: KM12
MDA-MB-435 = test system: MDA-MB-435
OVCAR-3 = test system: OVCAR-3
OVCAR-4 = test system: OVCAR-4
OVCAR-5 = test system: OVCAR-5
PC-3 = test system: PC-3
RPMI-8226 = test system: RPMI-8226
SF-539 = test system: SF-539
SK-MEL-28 = test system: SK-MEL-28
SK-OV-3 = test system: SK-OV-3
SNB-19 = test system: SNB-19
SR = test system: SR
SW-620 = test system: SW-620
TK-10 = test system: TK-10

Structure (SMILES)	GI50 (A549)	GI50 (CAKI-1)	GI50 (CCRF-CEM)	GI50 (HOP-92)	GI50 (Hs-578T)	GI50 (IGROV-1)	GI50 (KM12)	GI50 (MDA-MB-435)	GI50 (OVCAR-3)	GI50 (OVCAR-4)	GI50 (OVCAR-5)	GI50 (PC-3)	GI50 (RPMI-8226)	GI50 (SF-539)	GI50 (SK-MEL-28)	GI50 (SK-OV-3)	GI50 (SNB-19)	GI50 (SR)	GI50 (SW-620)	GI50 (TK-10)
COc1ccc2c(c1)c(=O)c1c(NCCNCCO)ccc3c(=O)n(CCN(C)C)c(=O)n2c31	< 0.0255 µM (active)	0.0537 µM (active)	0.104 µM (active)	0.0766 µM (active)	0.132 µM (active)	0.0279 µM (active)	0.142 µM (active)	0.103 µM (active)	0.331 µM (active)	0.0895 µM (active)	0.227 µM (active)	0.0836 µM (active)	0.0912 µM (active)	< 0.0265 µM (active)	0.475 µM (active)	0.251 µM (active)	0.07 µM (active)	< 0.01 µM (active)	< 0.0236 µM (active)	0.187 µM (active)
CNc1ncnc2c1cnn2Cc1cn(CCCCO)nn1	> 100 µM (inactive)	> 100 µM (inactive)	> 100 µM (inactive)	> 100 µM (inactive)	> 100 µM (inactive)	> 100 µM (inactive)	> 100 µM (inactive)	> 100 µM (inactive)	> 100 µM (inactive)	> 100 µM (inactive)	> 100 µM (inactive)	> 100 µM (inactive)	> 100 µM (inactive)	> 100 µM (inactive)	> 100 µM (inactive)	> 100 µM (inactive)	> 100 µM (inactive)	> 100 µM (inactive)	> 100 µM (inactive)	> 100 µM (inactive)
Oc1cccc2cc(Br)cnc12	5.97 µM (inactive)	24.5 µM (inactive)	2.37 µM (inactive)	16 µM (inactive)	27.9 µM (inactive)	5.09 µM (inactive)	7.5 µM (inactive)	14.1 µM (inactive)	2.67 µM (inactive)	2.86 µM (inactive)	17.7 µM (inactive)	6.68 µM (inactive)	3.49 µM (inactive)	10 µM (inactive)	49.2 µM (inactive)	41.1 µM (inactive)	> 39.4 µM (inactive)	3.42 µM (inactive)	5.28 µM (inactive)	35.8 µM (inactive)
Nc1nc(Nc2ccccc2)sc1C(=O)c1cccs1	14.2 µM (inactive)	14.4 µM (inactive)	2.81 µM (inactive)	30.3 µM (inactive)	15.8 µM (inactive)	11.7 µM (inactive)	4.19 µM (inactive)	15 µM (inactive)	3.94 µM (inactive)	15.5 µM (inactive)	11.7 µM (inactive)	15.9 µM (inactive)	12.8 µM (inactive)	10.7 µM (inactive)	25.4 µM (inactive)	29.4 µM (inactive)	16.6 µM (inactive)	1.74 µM (inactive)	11.6 µM (inactive)	16.4 µM (inactive)
CC1(C)CCCC2OC2CCC(C)(C)C1=O (stereo not given)	> 100 µM (inactive)	> 100 µM (inactive)	> 100 µM (inactive)	> 100 µM (inactive)	> 100 µM (inactive)	> 100 µM (inactive)	> 100 µM (inactive)	> 100 µM (inactive)	> 100 µM (inactive)	> 100 µM (inactive)	> 100 µM (inactive)	> 100 µM (inactive)	> 100 µM (inactive)	> 100 µM (inactive)	> 100 µM (inactive)	> 100 µM (inactive)	> 100 µM (inactive)	> 100 µM (inactive)	> 100 µM (inactive)	> 100 µM (inactive)
C[C@@H](CC(=O)OCc1ccccc1)OC1OC(COC(=O)C(C)(C)C)C(OC(=O)C(C)(C)C)C(OC(=O)C(C)(C)C)C1OC(=O)C(C)(C)C (stereo not given in full)	> 100 µM (inactive)	> 100 µM (inactive)	> 100 µM (inactive)	> 100 µM (inactive)	> 100 µM (inactive)	> 100 µM (inactive)	> 100 µM (inactive)	> 100 µM (inactive)	> 100 µM (inactive)	> 100 µM (inactive)	> 100 µM (inactive)	> 100 µM (inactive)	> 100 µM (inactive)	> 100 µM (inactive)	> 100 µM (inactive)	> 100 µM (inactive)	> 100 µM (inactive)	> 100 µM (inactive)	> 100 µM (inactive)	> 100 µM (inactive)
COc1cc2c3c(c1O)C1(C=CC(=O)C=C1)CC3N(C)CC2 (stereo not given) [GLAZIOVINE]	22.4 µM (inactive)	7.29 µM (inactive)	2.31 µM (inactive)	11.6 µM (inactive)	14.4 µM (inactive)	6.22 µM (inactive)	4.48 µM (inactive)	11 µM (inactive)	5.37 µM (inactive)	5.97 µM (inactive)	19.3 µM (inactive)	14.3 µM (inactive)	14.8 µM (inactive)	10.1 µM (inactive)	13.2 µM (inactive)	31.3 µM (inactive)	14.3 µM (inactive)	3.3 µM (inactive)	5.89 µM (inactive)	21.6 µM (inactive)
